Publication PMC4809498, “Artonin E Induces Apoptosis via Mitochondrial Dysregulation in SKOV-3 Ovarian Cancer Cells” (PLoS ONE, 2016)
Values after ≈ are worked out from the molar mass of the structure shown.

Legend:
SKOV-3 cells = test: MTT cell viability assay, SKOV-3; assay type: cell-based, human; settings: SKOV-3, MTT; for IC50: Homo sapiens
Procedure: (§1) Metastatic ovarian adenocarcinoma (SKOV-3) and normal Chinese hamster ovary (CHO) cell lines were originally obtained from the American Type Culture Collection (ATCC; Manassas, VA). SKOV-3 cells were cultured in McCoy’s 5A medium and CHO cells were cultured in F12K medium. A human periodontal ligament fibroblast cell line was purchased from Lonza, USA and maintained in stroma cell basal medium. T1074 (normal immortalized human ovarian surface epithelial cell line) was originally purchased from Applied Biological Materials (abm®) Canada and cultured in Prigrow 1 medium.
(§2) The inhibitory effects of artonin E and two positive controls paclitaxel and carboplatin were examined by MTT assay. Cells at a density of 5×10^3cells/well were placed in a 96-well plate and left for 24 h to attach. The attached cells were exposed to artonin E, paclitaxel, and carboplatin at different concentrations and incubated for 24, 48, and 72 h. Subsequently, 20 μL of 5 mg/mL MTT solution was added after drug treatment and the resulting mixture was incubated for 4 h to form purple formazan. Afterward, 100 μL of dimethyl sulfoxide (DMSO) was transferred into each well to dissolve the purple formazan, and results were measured using a microplate reader (Tecan Infinite M 200 PRO, Männedorf, Switzerland) at an absorbance of 570 nm. The half-maximal concentrations that caused cell growth inhibition (IC50 values) were obtained from the MTT viability growth curve.

T1074 cells = test: MTT cell viability assay, T1074; assay type: cell-based, human; settings: for IC50: Homo sapiens
Procedure: as §1, §2

IC50 (SKOV-3 cells; SK-OV-3, 24 h, 24 h treatment) [µg/mL]	IC50 (SKOV-3 cells; SK-OV-3, 48 h, 48 h treatment) [µg/mL]	IC50 (SKOV-3 cells; SK-OV-3, 72 h, 72 h treatment) [µg/mL]	SMILES	IC50 values (SKOV-3 cells; 24 h treatment) [µg/mL]	IC50 values (SKOV-3 cells; 48 h treatment) [µg/mL]	IC50 values (SKOV-3 cells; 72 h treatment) [µg/mL]	IC50 values (T1074 cells; 24 h treatment) [µg/mL]	IC50 values (T1074 cells; 48 h treatment) [µg/mL]	IC50 values (T1074 cells; 72 h treatment) [µg/mL]	IC50 (T1074 cells; 24 h treatment) [µg/mL]	IC50 (T1074 cells; 48 h treatment) [µg/mL]	IC50 (T1074 cells; 72 h treatment) [µg/mL]
			N.N.O=C([O-])C1(C(=O)[O-])CCC1.[Pt+2] [Carboplatin, carboplatin]	15.1 ± 0.36	10.5 ± 0.5	7.2 ± 0.25	45.6 ± 0.57	25.8 ± 0.28	10.8 ± 0.7			
4.6 ± 0.28 (≈ 5.39 µM)	2.5 ± 0.2 (≈ 2.93 µM)	0.8 ± 0.2 (≈ 0.937 µM)	CC(=O)O[C@H]1C(=O)[C@@]2(C)[C@H]([C@H](OC(=O)c3ccccc3)[C@]3(O)C[C@H](OC(=O)[C@H](O)[C@@H](NC(=O)c4ccccc4)c4ccccc4)C(C)=C1C3(C)C)[C@]1(OC(C)=O)CO[C@@H]1C[C@@H]2O [Paclitaxel, paclitaxel]							> 50	49.3 ± 0.76 (≈ 57.7 µM)	30.5 ± 0.5 (≈ 35.7 µM)
